Experimental data: patent US12144795B2, “Cannabidiol compositions having modified cannabinoid profiles” (priority 2018, dated 2024)

Assay: Stability studies of CBD prepared via Protocol 3 (crude, pure, 2x recrystallized; 5° C., 25° C./60% RH, 40° C./75% RH)
Type: physicochemical

Compound: C=C(C)[C@@H]1CCC(C)=C[C@H]1c1c(O)cc(CCCCC)cc1O [Pure CBD (Recrystallized Twice)]
- Related substances by HPLC (low level): Δ9-Tetrahydrocannabinol (25° C./60% RH, 0 month): 11 ppm
- Water content in % w/w (25° C./60% RH, 0 month): <0.05%
- Appearance (25° C./60% RH, 1 month): Off-White
- Assay by HPLC (25° C./60% RH, 1 month): 100.2%
- Each unspecified impurity (25° C./60% RH, 1 month): <0.03% (ND)
- Related substances by HPLC (low level): Δ8-Tetrahydrocannabinol (25° C./60% RH, 1 month): 9 ppm
- Related substances by HPLC (low level): Δ9-Tetrahydrocannabinol (25° C./60% RH, 1 month): 6 ppm
- Related substances by HPLC: 4-Monobromo-CBD (25° C./60% RH, 1 month): <0.03% (ND)
- Related substances by HPLC: Olivetol (25° C./60% RH, 1 month): <0.03% (ND)
- Related substances by HPLC: Sum of impurities, ≥0.05% (25° C./60% RH, 1 month): <0.05% (ND)
- Related substances by HPLC: Δ8-Tetrahydrocannabinol (25° C./60% RH, 1 month): <0.02% (ND)
- Related substances by HPLC: Δ9-Tetrahydrocannabinol (25° C./60% RH, 1 month): <0.02% (ND)
- Appearance (25° C./60% RH, 2 months): Oft-White
- Assay by HPLC (25° C./60% RH, 2 months): 99.9%
- Each unspecified impurity (25° C./60% RH, 2 months): <0.03% (ND)
- Related substances by HPLC (low level): Δ8-Tetrahydrocannabinol (25° C./60% RH, 2 months): 7 ppm
- Related substances by HPLC (low level): Δ9-Tetrahydrocannabinol (25° C./60% RH, 2 months): 4 ppm
- Related substances by HPLC: 4-Monobromo-CBD (25° C./60% RH, 2 months): <0.03% (ND)
- Related substances by HPLC: Olivetol (25° C./60% RH, 2 months): <0.03% (ND)
- Related substances by HPLC: Sum of impurities, ≥0.05% (25° C./60% RH, 2 months): <0.05% (ND)
- Related substances by HPLC: Δ8-Tetrahydrocannabinol (25° C./60% RH, 2 months): <0.02% (ND)
- Related substances by HPLC: Δ9-Tetrahydrocannabinol (25° C./60% RH, 2 months): <0.02% (ND)
- Appearance (25° C./60% RH, 3 months): White
- Assay by HPLC (25° C./60% RH, 3 months): 98.4%
- Each unspecified impurity: RRT~1.980 (25° C./60% RH, 3 months): RRT~1.980: 0.03%
- Related substances by HPLC (low level): Δ8-Tetrahydrocannabinol (25° C./60% RH, 3 months): 13 ppm
- Related substances by HPLC (low level): Δ9-Tetrahydrocannabinol (25° C./60% RH, 3 months): <4 ppm
- Related substances by HPLC: 4-Monobromo-CBD (25° C./60% RH, 3 months): <0.03% (ND)
- Related substances by HPLC: Olivetol (25° C./60% RH, 3 months): <0.03% (ND)
- Related substances by HPLC: Sum of impurities, ≥0.05% (25° C./60% RH, 3 months): <0.05%
- Related substances by HPLC: Δ8-Tetrahydrocannabinol (25° C./60% RH, 3 months): <0.02% (ND)
- Related substances by HPLC: Δ9-Tetrahydrocannabinol (25° C./60% RH, 3 months): <0.02% (ND)
- Related substances by HPLC (low level): Δ9-Tetrahydrocannabinol (40° C./75% RH, 0 month): 11 ppm
- Water content in % w/w (40° C./75% RH, 0 month): <0.05%
- Appearance (40° C./75% RH, 1 month): Off-White
- Assay by HPLC (40° C./75% RH, 1 month): 99.5%
- Each unspecified impurity (40° C./75% RH, 1 month): <0.03% (ND)
- Related substances by HPLC (low level): Δ8-Tetrahydrocannabinol (40° C./75% RH, 1 month): 6 ppm
- Related substances by HPLC (low level): Δ9-Tetrahydrocannabinol (40° C./75% RH, 1 month): 4 ppm
- Related substances by HPLC: 4-Monobromo-CBD (40° C./75% RH, 1 month): <0.03% (ND)
- Related substances by HPLC: Olivetol (40° C./75% RH, 1 month): <0.03% (ND)
- Related substances by HPLC: Sum of impurities, ≥0.05% (40° C./75% RH, 1 month): <0.05% (ND)
- Related substances by HPLC: Δ8-Tetrahydrocannabinol (40° C./75% RH, 1 month): <0.02% (ND)
- Related substances by HPLC: Δ9-Tetrahydrocannabinol (40° C./75% RH, 1 month): <0.02% (ND)
- Appearance (40° C./75% RH, 2 months): Off-White
- Assay by HPLC (40° C./75% RH, 2 months): 101.7%
- Each unspecified impurity (40° C./75% RH, 2 months): <0.03% (ND)
- Related substances by HPLC (low level): Δ8-Tetrahydrocannabinol (40° C./75% RH, 2 months): 6 ppm
- Related substances by HPLC (low level): Δ9-Tetrahydrocannabinol (40° C./75% RH, 2 months): <4 ppm (3 ppm)
- Related substances by HPLC: 4-Monobromo-CBD (40° C./75% RH, 2 months): <0.03% (ND)
- Related substances by HPLC: Olivetol (40° C./75% RH, 2 months): <0.03% (ND)
- Related substances by HPLC: Sum of impurities, ≥0.05% (40° C./75% RH, 2 months): <0.05% (ND)
- Related substances by HPLC: Δ8-Tetrahydrocannabinol (40° C./75% RH, 2 months): <0.02% (ND)
- Related substances by HPLC: Δ9-Tetrahydrocannabinol (40° C./75% RH, 2 months): <0.02% (ND)
- Appearance (40° C./75% RH, 3 months): Off-white
- Assay by HPLC (40° C./75% RH, 3 months): 99.4%
- Each unspecified impurity: RRT~1.981 (40° C./75% RH, 3 months): 0.03%
- Related substances by HPLC (low level): Δ8-Tetrahydrocannabinol (40° C./75% RH, 3 months): 14 ppm
- Related substances by HPLC (low level): Δ9-Tetrahydrocannabinol (40° C./75% RH, 3 months): <4 ppm
- Related substances by HPLC: 4-Monobromo-CBD (40° C./75% RH, 3 months): <0.03% (ND)
- Related substances by HPLC: Olivetol (40° C./75% RH, 3 months): <0.03% (ND)
- Related substances by HPLC: Sum of impurities, ≥0.05% (40° C./75% RH, 3 months): <0.05%
- Related substances by HPLC: Δ8-Tetrahydrocannabinol (40° C./75% RH, 3 months): <0.02% (ND)
- Related substances by HPLC: Δ9-Tetrahydrocannabinol (40° C./75% RH, 3 months): <0.02% (ND)
- Appearance (40° C./75% RH, 5 months): Off-white
- Assay by HPLC (40° C./75% RH, 5 months): 98.9%
- Each unspecified impurity: RRT~0.956 (40° C./75% RH, 5 months): 0.04%
- Related substances by HPLC (low level): Δ8-Tetrahydrocannabinol (40° C./75% RH, 5 months): 21 ppm
- Related substances by HPLC (low level): Δ9-Tetrahydrocannabinol (40° C./75% RH, 5 months): <4 ppm
- Related substances by HPLC: 4-Monobromo-CBD (40° C./75% RH, 5 months): <0.03% (ND)
- Related substances by HPLC: Olivetol (40° C./75% RH, 5 months): <0.03% (ND)
- Related substances by HPLC: Sum of impurities, ≥0.05% (40° C./75% RH, 5 months): <0.05%
- Related substances by HPLC: Δ8-Tetrahydrocannabinol (40° C./75% RH, 5 months): <0.02% (ND)
- Related substances by HPLC: Δ9-Tetrahydrocannabinol (40° C./75% RH, 5 months): <0.02% (ND)
